Results as given in paper PMC4741719, “Acquisition of a single EZH2 D1 domain mutation confers acquired resistance to EZH2-targeted inhibitors” (Oncotarget, 2015).
Like-named read-outs stand apart in the source and are kept apart here.

Columns and labels:
[1] = system: Pfeiffer cells (Parental); experiment: Viability assay (Cell-Titer-Glo, 6 days), parental Pfeiffer cells; assay type: cell-based; settings: Homo sapiens
[2] = system: Pfeiffer cells stably expressing Y111D/A677G/H689A; experiment: Viability assay, Pfeiffer cells stably expressing Y111D/A677G/H689A EZH2; settings: Homo sapiens, read-out: IC50 cell viability
[3] = system: Pfeiffer cells stably-expressing Y111D/Y641F EZH2 mutant; experiment: Viability assay, Pfeiffer cells stably-expressing Y111D/Y641F EZH2
E-200 Pfeiffer cells = experiment: Viability assay, EPZ-6438-resistant E-200 Pfeiffer cells; assay type: cell-based; settings: Homo sapiens, read-out: IC50 cell viability
[4] = system: Pfeiffer cells stably-expressing Y111D/A677G EZH2 mutant; experiment: Viability assay, Pfeiffer cells stably-expressing Y111D/A677G EZH2; settings: Homo sapiens, read-out: IC50 cell viability
[5] = system: H3K27me3 in E-200 Pfeiffer cells; experiment: Cellular H3K27me3 AlphaLISA, E-200 Pfeiffer cells; assay type: cell-based; settings: Homo sapiens; Pfeiffer E-200; Figure 3B
Procedure: Cells were plated at 500 cells/well in 10% DMEM, 50 uL/well in 384 well plates. […] DMSO (0.1%) was used as a vehicle control. Plates were incubated for 72 hours at 37°C. […] Plates were read using AlphaLISA protocol on Envision (Perkin Elmer). […] Pfeiffer cells were treated overnight with 100 μg/mL of N-ethyl-N-nitrosourea (ENU; Sigma Aldrich, St. […] After 7 days, cells were dosed again with fresh compound and grown until outgrowth (3 to 4 weeks). […] Ion semiconductor sequencing (Ion Torrent) and single molecule real time sequencing (PacBio) were performed at Molecular MD and Expression analysis (Quintiles), respectively.

[6] = system: H3K27me3 in Pfeiffer cells stably-expressing Y111D/A677G EZH2 mutant; experiment: Cellular H3K27me3 AlphaLISA, Pfeiffer cells stably-expressing Y111D/A677G EZH2; settings: Homo sapiens, read-out: IC50 H3K27me3
[7] = system: H3K27me3 in Pfeiffer cells (Parental); experiment: Cellular H3K27me3 AlphaLISA, parental Pfeiffer cells; assay type: cell-based; settings: Homo sapiens, Figure 3B
Procedure: Cells were plated at 500 cells/well in 10% DMEM, 50 uL/well in 384 well plates. […] DMSO (0.1%) was used as a vehicle control. Plates were incubated for 72 hours at 37°C. […] Plates were read using AlphaLISA protocol on Envision (Perkin Elmer).

E-100 Pfeiffer cells = experiment: Viability assay, EPZ-6438-resistant E-100 Pfeiffer cells; assay type: cell-based; settings: Homo sapiens, read-out: IC50 cell viability
[8] = system: DLBCL and rhabdoid INI1-deficient patients; design: method as in earlier work; settings: phase 1 clinical trial, monotherapy; cited from earlier work

Row | IC50 [2] [nM] | IC50 [5] [µM] | IC50 [6] [µM] | SMILES | IC50 ([1]; Parental Pfeiffer, Figure 1C, three independent experiments) [nM] | IC50 ([1]; Pfeiffer Parental, Figure 3C) [nM] | IC50 ([1]; Pfeiffer Parental, Figure 4B) [nM] | IC50 ([3]; Homo sapiens, Pfeiffer, read-out: IC50 cell viability) [nM] | increase in IC50 values ([3]; Y111D/Y641F, both growth and H3K27 tri-methylation) | IC50 (E-200 Pfeiffer cells; E-200, Unwash, Figure 1E) [µM] | IC50 (E-200 Pfeiffer cells; E-200, Wash 8 weeks (drug withdrawal), Figure 1E) [µM] | IC50 (E-200 Pfeiffer cells; E-200 Pfeiffer, Figure 1C) [µM] | IC50 [4] [nM] | IC50 [7] [nM] | IC50 (E-100 Pfeiffer cells; E-100, Unwash, Figure 1E) [µM] | IC50 (E-100 Pfeiffer cells; E-100, Wash 8 weeks (drug withdrawal), Figure 1E) [µM] | IC50 (E-100 Pfeiffer cells; E-100 Pfeiffer, Figure 1C) [µM] | clinical response [8]
1 | 25 ± 9 | > 10 | 5 ± 1.59 | CC[C@H](C)n1cc(C)c2c(C(=O)NCc3c(C)cc(C)[nH]c3=O)cc(-c3ccc(N4CCNCC4)nc3)cc21 [GSK126] | 23 ± 5 | 33 ± 7 | 30 ± 5 | 111 ± 35 | 3–4 fold | 3.15 ± 0.508 | 2.01 ± 1.56 | 3.98 ± 0.994 | 2670 ± 1370 | 36 ± 27 | 4.03 ± 0.37 | 1.22 ± 0.089 | 3.96 ± 1.04 | –
2 | – | – | – | CCN(c1cc(-c2ccc(CN3CCOCC3)cc2)cc(C(=O)NCc2c(C)cc(C)[nH]c2=O)c1C)C1CCOCC1 [EPZ-6438] | – | – | – | – | – | – | – | – | – | – | – | – | – | durable objective responses
